Consider 2 compounds from patent publication US20210161857A1, “COMPOSITION AND METHOD FOR SUPPRESSING INCREASE IN BLOOD GLUCOSE LEVEL” (SUNTORY HOLDINGS LIMITED, priority 2018, published 2021).

The conditions of series [1]: high temperature of 100° C.; cited from earlier work.
Series [2] in a line: Glucose tolerance test after single intake of test substance. The conditions noted are these: single oral intake 30 or 60 mg/kg, 30 min before oral glucose 1 g/kg; vs control group, at any time. Format: in vivo, Mice (C57BL/6J). The source says: Evaluation of Action of Isoxanthohumol to Suppress an Increase in Blood Glucose Level by Single Intake
The effect of single intake of isoxanthohumol on the increase in blood glucose level after glucose intake was examined by the following procedure.
Xanthohumol and isoxanthohumol were the standard samples (purity of 95% or higher) obtained in Preparation Example 1. The “Dosage” in the table, indicates the dosage (mg) of the test substance per kg body weight. A dosing solution containing a mixture of the test substance and a solvent was used to administer the test substance. The solvent was a 0.5 wt % sodium carboxymethylcellulose (CMC) aqueous solution. The volume of the dosing solution was 10 mL/kg A 50 wt % glucose aqueous solution was used for glucose intake.
Mice (C57BL/6J, male, 7 weeks of age, CLEA Japan, Inc.) were purchased, and they were quarantined and acclimatized for one week. […] The selected animals were divided into groups (n=9 in each group) in the group structure shown in Table, 1 by the stratified continuous randomization method based on body weight at the end of the acclimatization period.
After grouping, each group was oral administered with the test substance as described in Table 1. […] Soon after blood drawing, the blood glucose level was measured using Glutest Neo Sensor (Sanwa Kagaku Kenkyusho Co., Ltd.). […]

The nature of series [3]: Glucose tolerance test after continuous intake (three weeks) in high-fat diet mouse model. The conditions noted are these: high fat diet mice, oral glucose 1 g/kg, vs high fat diet group. Format: in vivo, Mice (C57BL/6J). The source says: Evaluation of Action of Isoxanthohumol to Suppress an Increase in Blood Glucose Level by Continuous Intake
The effect of continuous intake of isoxanthohumol on the increase in blood glucose level after glucose intake was studied by the following procedure using a high-fat diet mouse model.
In the table, “Regular diet” is control diet “D12450J” (Research Diets), and “60 kcal % High-fat diet” is very high-fat diet “D12492” (Research Diets); Xanthohumol and isoxanthohumol were the standard samples (purity of 95% or higher) obtained in Preparation Example 1. The “Dosage” in the table indicates the dosage (mg) of the test substance per day per kg body weight. As in Reference Example 1, a dosing solution containing a mixture of the test substance and a solvent (a 0.5 wt % CMC aqueous solution) was used to administer the test substance. The volume of the dosing solution was 10 ml/kg. The amount of the test substance and the volume of the solution were calculated based on the latest body weight on the administration day of the test substance. A 50 wt % glucose aqueous solution was used for glucose intake.
Mice (C57BL/6J, male, 7 weeks of age, CLEA japan, Inc.) were purchased, and they were quarantined and acclimatized for one week. […] The selected animals were divided into groups (n=8 in each group) in the group structure shown in Table 2 by the stratified continuous randomization method based on body weight at the end of the acclimatization period. They were fed with free access to specific basic feed and water. The test substance was orally administered once a day for three weeks.
After fasting for six hours on the last administration day of the test substance, each group was subjected to oral glucose intake to an amount of 1 g per 1 kg body weight, and blood was drawn from the tail vein over time. Soon after blood drawing, the blood glucose level was measured using Glutest Neo Sensor (Sanwa Kagaku Kenkyusho Co., Ltd.).
Statistical processing was performed using Microsoft Office Excel 2003. A significant difference, was tested between the regular diet group and the high fat diet group by Student's t-test (significant level: 1% (p<0.01)). A significant difference was tested between the high fat diet group and each group excluding the regular diet group by Dunnett's multiple comparison test (significant level: 5% (p<0.05)).

For series [4], the system named is 3T3-L1 adipose cells. The conditions noted are these: cited from earlier work.
For series [5] the following is noted: 10 mg/L mixed in drinking water, long-term breeding, high-fat diet mouse model; cited from earlier work.
For series [6] the following is noted: high-fat diet mouse model, cited from earlier work.
[7] abbreviates: 30 mg/kg/day orally once a day for three weeks.
Where [8] appears, read: 60 mg/kg/day orally once a day for three weeks.

Structures are written as SMILES.

`COc1cc(O)c(CC=C(C)C)c2c1C(=O)CC(c1ccc(O)cc1)O2` (centres unmarked) [isoxanthohumol]: the thermal stability entry in series [1] is “stable”. Also, the “action to suppress an increase in blood glucose level” value in series [2] was “did not show a significant action to suppress an increase in blood glucose level”; in series [3] (setting [7]), “tendency for a suppressed increase in blood glucose level”; in series [3] (setting [8]), “significant action to suppress an increase in blood glucose level”.
As for `COc1cc(O)c(CC=C(C)C)c(O)c1C(=O)/C=C/c1ccc(O)cc1` [xanthohumol], in series [4], the secretion of adiponectin result was “promote secretion of adiponectin”. The “action to suppress an increase in blood glucose level” value in series [2] is listed as “did not show a significant action to suppress an increase in blood glucose level”; in series [3] (setting [7]), “No significant action to suppress an increase in blood glucose level”; in series [3] (setting [8]) it was “No significant action to suppress an increase in blood glucose level”. Besides, the blood glucose level result in series [5] is recorded as “decrease in blood glucose level”. Further, the “fasting blood glucose level” value in series [6] (continuous administration 60 mg/kg/day) was “decreases the fasting blood glucose level”. The “fasting blood insulin level” value in series [6] (continuous administration 30 or 60 mg/kg/day) is on record as “decreases the fasting blood insulin level”.
